{"source": "patent US20060069132A1", "about": "“Azolecarboxamide herbicides” (priority 2004, published 2006)", "key": {"[1]": {"tested_on": "velvetleaf (ABUTH)", "experiment": "Test J Compounds 2 and 6 alone and in combination with other herbicides, foliage spray", "format": "in vivo, Abutilon theophrasti", "set-up": "key: 0 = no effect, 100 = complete control", "conditions": "applied alone", "text": "Colby's Equation was used to calculate the expected additive herbicidal effect of the mixtures of Compound 6 with Harmony® Extra (i.e. a 2:1 mixture by weight of thifensulfuron-methyl and tribenuron-methyl). […]\nSeeds of test plants consisting of barnyardgrass (ECHCG; Echinochloa crus-galli (L.) Beauv.), blackgrass (ALOMY; Alopecurus myosuroides Huds.), Surinam grass (BRADC; Urochloa decumbens (Staph) R. D. Webster, previously named Brachiaria decumbens Stapf), cocklebur (XANST, Xanthium strumarium L.), corn (ZEAMD, Zea mays L. cv. ‘Pioneer 33G26’), large crabgrass (DIGSA, Digitaria sanguinalis (L.) Scop.), giant foxtail (SETFA, Setaria faberi Herrm.), lambsquarters (CHEAL, Chenopodium album L.), morningglory (IPOCO, Ipomoea coccinea L.), pigweed (AMARE, Amaranthus retroflexus L.), velvetleaf (ABUTH, Abutilon theophrasti Medik.) wheat (TRZAS, Triticum aestivum L. cv. ‘Recital’) and wild oat (AVEFA, Avena fatua L.) were planted in Redi-Earth® planting medium (Scotts Company, 14111 Scottslawn Road, Marysville, Ohio 43041) comprising spaghnum peat moss and vermiculite. […] Also listed in Table J are the expected effects for the mixtures calculated using Colby's Equation."}, "[2]": {"tested_on": "downy bromegrass", "experiment": "Test A pre-/postemergence herbicide test", "format": "in vivo, Bromus tectorum", "conditions": "Preemergence, visual rating, 0 to 100 scale (0 no effect, 100 complete control)", "text": "Seeds of plant species selected from barnyardgrass (Echinochloa crus-galli (L.) Beauv.), downy bromegrass (Bromus tectorum L.), large crabgrass (Digitaria sanguinalis (L.) Scop.), giant foxtail (Setaria faberi Herrm.), morningglory (Ipomoea spp.), redroot pigweed (Amaranthus retroflexus L.) and velvetleaf (Abutilon theophrasti Medik.) were planted into a sandy loam soil and treated preemergence with a directed soil spray using test chemicals formulated in a non-phytotoxic solvent mixture which included a surfactant. At the same time plants selected from these species were also treated postemergence by spraying to runoff with test chemicals formulated.\nPlants ranged in height from 2 to 10 cm and were in the one- to two-leaf stage for the postemergence treatment. Treated plants and untreated controls were maintained in a greenhouse for approximately ten days, after which time all treated plants were compared to untreated controls and visually evaluated for injury. Plant response ratings, summarized in Table A, are based on a 0 to 100 scale where 0 is no effect and 100 is complete control. A dash (-) response means no test results."}, "[3]": {"tested_on": "wheat", "experiment": "Test F pre-/postemergence herbicide test", "format": "in vivo, Triticum aestivum", "text": "(§1) Seeds of plant species selected from annual blugrass (Poa annua L.), blackgrass (Alopecurus myosuroides Huds.), catchweed bedstraw (Gallium aparine L.), common chickweed (Stellaria media (L.) Vill./Cyr.), downy bromegrass (Bromus tectorum L.), green foxtail (Setaria viridis (L.) Beauv.), Italian ryegrass (Lolium multiflorum Lam.), kochia (Kochia scoparia (L.). Schrad.), lambsquarters (Chenopodium album L.), littleseed canarygrass (Phalaris minor Retz.), pigweed (Amaranthus retroflexus L.), Russian thistle (Salsola kali L. ssp. Ruthenica (Iljin) Soo), wild buckwheat (Polygonum convolvulus L.), wild mustard (Sinapis arvensis L.), wild oat (Avena fatua L.), windgrass (Apera spica-venti (L.) Beauv.), winter barley (Hordeum vulgare L.), and wheat (Triticum aestivum L.) were planted and treated preemergence with test chemicals formulated in a non-phytotoxic solvent mixture which included a surfactant.\n(§2) At the same time, plants selected from these crop and weed species were treated with postemergence applications of some of the test chemicals formulated in the same manner. Plants ranged in height from 2 to 18 cm (1- to 4-leaf stage) for postemergence treatments. Treated plants and controls were maintained in a greenhouse for 12 to 14 days, after which time all species were compared to controls and visually evaluated. Plant response ratings, summarized in Table F, are based on a scale of 0 to 100 where 0 is no effect and 100 is complete control. A dash (-) response means no test result."}, "[4]": {"tested_on": "lambsquarters", "experiment": "Test F pre-/postemergence herbicide test", "format": "in vivo, Chenopodium album", "text": "as §1, §2"}}, "data": [{"smiles": "CCn1nc(C(C)(C)C)cc1C(=O)Nc1cc(C(=O)N(C)C)ccc1F", "note": "[Compound 6, N-[5-[(dimethylamino)carbonyl]-2-fluorophenyl]-3-(1,1-dimethylethyl)-1-ethyl-1H-pyrazole-5-carboxamide]", "values": [{"measurement": "ABUTH Obsd.", "setting": "[1]; 62 g a.i./ha", "result": 27}, {"measurement": "ABUTH Obsd.", "setting": "[1]; 125 g a.i./ha", "result": 47}]}, {"smiles": "CC(=NO)c1cccc(NC(=O)c2cc(C(C)(C)C)nn2C)c1", "note": "[Compound 102]", "values": [{"measurement": "Bromegrass, Downy plant response rating", "setting": "[2]; 500 g ai/ha", "result": 60}, {"measurement": "Bromegrass, Downy plant response rating", "setting": "[2]; 2000 g ai/ha", "result": 60}]}, {"smiles": "CCn1nc(C(C)(C)C)cc1C(=O)Nc1cc(C(=O)OC(C)C)c(F)cc1F", "note": "[Compound 248]", "values": [{"measurement": "Plant response rating (0-100), Wheat", "setting": "[3]; Postemergence, 31 g ai/ha", "result": 0}, {"measurement": "Plant response rating (0-100), Wheat", "setting": "[3]; Postemergence, 62 g ai/ha", "result": 5}, {"measurement": "Plant response rating (0-100), Wheat", "setting": "[3]; Postemergence, 125 g ai/ha", "result": 5}, {"measurement": "Plant response rating (0-100), Wheat", "setting": "[3]; Postemergence, 250 g ai/ha", "result": 20}, {"measurement": "Plant response rating (0-100), Wheat", "setting": "[3]; Preemergence, 31 g ai/ha", "result": 0}, {"measurement": "Plant response rating (0-100), Wheat", "setting": "[3]; Preemergence, 62 g ai/ha", "result": 0}, {"measurement": "Plant response rating (0-100), Wheat", "setting": "[3]; Preemergence, 125 g ai/ha", "result": 0}, {"measurement": "Plant response rating (0-100), Wheat", "setting": "[3]; Preemergence, 250 g ai/ha", "result": 10}, {"measurement": "Plant response rating (0-100), Lambsquarters", "setting": "[4]; Postemergence, 31 g ai/ha", "result": 35}, {"measurement": "Plant response rating (0-100), Lambsquarters", "setting": "[4]; Postemergence, 62 g ai/ha", "result": 60}, {"measurement": "Plant response rating (0-100), Lambsquarters", "setting": "[4]; Postemergence, 125 g ai/ha", "result": 60}, {"measurement": "Plant response rating (0-100), Lambsquarters", "setting": "[4]; Postemergence, 250 g ai/ha", "result": 60}, {"measurement": "Plant response rating (0-100), Lambsquarters", "setting": "[4]; Preemergence, 31 g ai/ha", "result": 40}, {"measurement": "Plant response rating (0-100), Lambsquarters", "setting": "[4]; Preemergence, 62 g ai/ha", "result": 40}, {"measurement": "Plant response rating (0-100), Lambsquarters", "setting": "[4]; Preemergence, 125 g ai/ha", "result": 100}, {"measurement": "Plant response rating (0-100), Lambsquarters", "setting": "[4]; Preemergence, 250 g ai/ha", "result": 100}]}]}
